Tests used:
Assay type in all cases: functional, cell-based
[1] = system: MCF7S; assay: In vitro cytotoxic activity against growth of human breast carcinoma cell line (MCF-7-S) after 72 hr
[2] = system: MCF7R; assay: In vitro cytotoxic activity against growth of MDR phenotype human breast carcinoma cell line (MCF-7-R) after 72 hr
[3] = system: MDA-MB-435; assay: In vitro cytotoxic activity against growth of MDR1 transduced line (LCC6-MDR) after 72 hr; settings: Homo sapiens, MDA-MB-435, 72 h
[4] = system: MDA-MB-435; assay: In vitro cytotoxic activity against growth of human breast carcinoma cell line (LCC6-WT) after 72 hr; settings: MDA-MB-435, 72 h

`COc1cccc(C(=O)O[C@H]2CCC(=O)N3C[C@@H](OC(=O)[C@H](O)[C@H](CC(C)C)NC(=O)OC(C)(C)C)C[C@H]23)c1` was tested. Which IC50 ([1]; Homo sapiens, MCF7S, 72 h) did it give?
Its IC50 is 14 µM.

And the IC50 ([2]; Homo sapiens, MCF7R, 72 h)?
Its IC50 is greater than 20 µM.

What about the IC50 [3] of the same compound?
Its IC50 is greater than 20 µM.

What about the IC50 [4] of the same compound?
The IC50 was greater than 20 µM.

Which IC50 ([1]; Homo sapiens, MCF7S, 72 h) does the source give for `CC(=O)O[C@H]1C(=O)[C@@]2(C)[C@H]([C@H](OC(=O)c3ccccc3)[C@]3(O)C[C@H](OC(=O)[C@H](O)[C@@H](NC(=O)c4ccccc4)c4ccccc4)C(C)=C1C3(C)C)[C@]1(OC(C)=O)CO[C@@H]1C[C@@H]2O` [PACLITAXEL] here?
The IC50 was 0.002 µM.

And the IC50 ([2]; Homo sapiens, MCF7R, 72 h)?
Its IC50 is 1.19 µM.

And the IC50 [3]?
Its IC50 is 0.379 µM.

What about the IC50 [4] of the same compound?
The IC50 was 0.004 µM.

Which IC50 ([1]; mcf7s) does the source give for CISPLATIN here?
Its IC50 is 3.97 µM.

And the IC50 ([2]; mcf7r)?
The IC50 was 3.53 µM.

For `CC(C)C[C@@H]1NC(=O)OCCCc2cccc(c2)C(=O)O[C@H]2C=CC(=O)N3C[C@H](C[C@H]23)OC(=O)[C@@H]1O`, which IC50 ([1]; Homo sapiens, MCF7S, 72 h) is on record?
The IC50 was greater than 20 µM.

And the IC50 ([2]; Homo sapiens, MCF7R, 72 h)?
The IC50 was greater than 20 µM.

And the IC50 [3]?
The IC50 was greater than 20 µM.

And the IC50 [4]?
Its IC50 is greater than 20 µM.

— ChEMBL document CHEMBL1147469, “Design and synthesis of de novo cytotoxic alkaloids through mimicking taxoid skeleton” (Bioorg Med Chem Lett, 2004)
